From patent publication US20240400555A1 (Initial Therapeutics, Inc., priority 2023, published 2024)

These compounds were tested on MV-4-11 cells (assay: Cell Viability Assay in MV-4-11 Cells). Settings: Homo sapiens, MV4-11, 72 h, MV-4-11 cells, 72 h, Cell-Titer Glo; read-out: IC50.
Format: cell-based
In short: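 MV-4-11 cells at 7,000/well in IMDM with 10% FBS, exposed to compound for 72 h. Viability by CellTiter-Glo luminescence, normalized to DMSO as 100%, fitted with a four-parameter curve.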

Row | IC50 [nM] | Compound
1 | 780 | Cc1cccc2ccnc(N(C(=O)c3ccc(Nc4nccc(CO)n4)cc3F)[C@@H]3CCCNC3)c12 [Example 321, (R)-2-fluoro-4-((4-(hydroxymethyl)pyrimidin-2-yl)amino)-N-(8-methylisoquinolin-1-yl)-N-(piperidin-3-yl)benzamide]
2 | 360 | Cc1cccc2ccnc(N(C(=O)c3ccc(Nc4nccc(N5CCOCC5CN(C)C)n4)cc3F)[C@@H]3CCCNC3)c12 (stereo partly drawn) [Example 956, 4-(4-(3-((dimethylamino)methyl)morpholino)pyrimidin-2-ylamino)-2-fluoro-N-(8-methylisoquinolin-1-yl)-N—((R)-piperidin-3-yl)benzamide]
3 | 82 | COCCN(C)c1ccnc(Nc2ccc(C(=O)N(c3nccc4cccc(C)c34)[C@@H]3CCCNC3)c(F)c2)n1 [Example 742, (R)-2-fluoro-4-((4-((2-methoxyethyl)(methyl)amino)pyrimidin-2-yl)amino)-N-(8-methylisoquinolin-1-yl)-N-(piperidin-3-yl)benzamide]
4 | 210 | Cc1cccc2ccnc(N(C(=O)c3ccc(Nc4nccc(Nc5ccncc5)n4)cc3F)[C@@H]3CCCNC3)c12 [Example 683, (R)-2-fluoro-N-(8-methylisoquinolin-1-yl)-N-(piperidin-3-yl)-4-((4-(pyridin-4-ylamino)pyrimidin-2-yl)amino)benzamide]
5 | 40 | Cc1cccc2ccnc(N(C(=O)c3ccc(Nc4nccc(CN5CCCCC5)n4)cc3F)[C@@H]3CCCNC3)c12 [Example 687, (R)-2-fluoro-N-(8-methylisoquinolin-1-yl)-4-((4-(piperidin-1-ylmethyl)pyrimidin-2-yl)amino)-N-(piperidin-3-yl)benzamide]
6 | 82 | CCN1CCN(c2ccnc(Nc3ccc(C(=O)N(c4nccc5cccc(C)c45)[C@@H]4CCCNC4)c(F)c3)n2)CC1 [Example 713, (R)-4-((4-(4-ethylpiperazin-1-yl)pyrimidin-2-yl)amino)-2-fluoro-N-(8-methylisoquinolin-1-yl)-N-(piperidin-3-yl)benzamide]
7 | 31 | Cc1cccc2ccnc(N(C(=O)c3ccc(Nc4nccc(NC5CCOCC5)n4)cc3F)[C@@H]3CCCNC3)c12 [Example 954, (R)-2-fluoro-N-(8-methylisoquinolin-1-yl)-N-(piperidin-3-yl)-4-((4-((tetrahydro-2H-pyran-4-yl)amino)pyrimidin-2-yl)amino)benzamide]
8 | 340 | Cc1nc(Nc2ccc(C(=O)N(c3nccc4cccc(C)c34)[C@@H]3CCCNC3)c(F)c2)ncc1F [Example 754, (R)-2-fluoro-4-((5-fluoro-4-methylpyrimidin-2-yl)amino)-N-(8-methylisoquinolin-1-yl)-N-(piperidin-3-yl)benzamide]
9 | 250 | Cc1cccc2ccnc(N(C(=O)c3ccc(Nc4nccc(C5=CCNCC5)n4)cc3F)[C@@H]3CCCNC3)c12 [Example 665, (R)-2-fluoro-N-(8-methylisoquinolin-1-yl)-N-(piperidin-3-yl)-4-((4-(1,2,3,6-tetrahydropyridin-4-yl)pyrimidin-2-yl)amino)benzamide]
10 | 40 | Cc1cccc2ccnc(N(C(=O)c3ccc(Nc4ncnc(N5CCCC5)n4)cc3F)[C@@H]3CCCNC3)c12 [Example 968, 2-fluoro-N-(8-methylisoquinolin-1-yl)-N-[(3R)-piperidin-3-yl]-4-{[4-(pyrrolidin-1-yl)-1,3,5-triazin-2-yl]amino}benzamide]

Further lines, the compound ahead of its results:

Row | Compound | IC50 [nM]
11 | CCc1nnc(-c2ccc(C(=O)N(c3nccc4c(F)ccc(C)c34)[C@@H]3CCCNC3)c(F)c2)s1 [Example 657, (R)-4-(5-ethyl-1,3,4-thiadiazol-2-yl)-2-fluoro-N-(5-fluoro-8-methylisoquinolin-1-yl)-N-(piperidin-3-yl)benzamide] | 170
12 | Cc1cccc2ccnc(N(C(=O)c3cccc(C#CCCCCO)c3)[C@@H]3CCCNC3)c12 [Example 514, (R)-3-(6-hydroxyhex-1-yn-1-yl)-N-(8-methylisoquinolin-1-yl)-N-(piperidin-3-yl)benzamide] | 890
13 | Cc1cccc2ccnc(N(C(=O)N3CCC(c4cn(C)nn4)CC3)[C@@H]3CCCNC3)c12 [Example 347, N-(8-methyl-1-isoquinolyl)-4-(1-methyltriazol-4-yl)-N-[(3R)-3-piperidyl]piperidine-1-carboxamide] | 300
14 | Cc1cc(-c2cnn(C)c2)cc2ccnc(N(C(=O)c3ccc(-c4cn(C)nn4)cc3F)[C@@H]3CCCNC3)c12 [Example 845, 2-fluoro-N-[8-methyl-6-(1-methylpyrazol-4-yl)-1-isoquinolyl]-4-(1-methyltriazol-4-yl)-N-[(3R)-3-piperidyl]benzamide] | 69
15 | O=C(c1ccc(-n2nnc3cccnc32)cc1F)N(c1nccc2cc(-c3ccncc3)sc12)[C@@H]1CCCNC1 [Example 384, 2-fluoro-N-[(3R)-3-piperidyl]-N-[2-(4-pyridyl)thieno[2,3-c]pyridin-7-yl]-4-(triazolo[4,5-b]pyridin-3-yl)benzamide] | 110
16 | CCc1nnc(-c2ccc(C(=O)N(c3nccc4cc(Cl)cc(C)c34)[C@@H]3CCCNC3)c(F)c2)o1 [Example 654, (R)—N-(6-chloro-8-methylisoquinolin-1-yl)-4-(5-ethyl-1,3,4-oxadiazol-2-yl)-2-fluoro-N-(piperidin-3-yl)benzamide] | 150
17 | Cn1cc(-c2ccc(C(=O)N(c3nccc4cc(F)ccc34)[C@@H]3CCCNC3)nc2)nn1 [Example 803, (R)—N-(6-fluoroisoquinolin-1-yl)-5-(1-methyl-1H-1,2,3-triazol-4-yl)-N-(piperidin-3-yl)picolinamide] | 860
18 | Cc1cc(C2=NOC(C)(C)C2=O)ccc1C(=O)N(c1nccc2sc(C#CCO)cc12)[C@@H]1CCCNC1 [Example 737, (R)-4-(5,5-dimethyl-4-oxo-4,5-dihydroisoxazol-3-yl)-N-(2-(3-hydroxyprop-1-yn-1-yl)thieno[3,2-c]pyridin-4-yl)-2-methyl-N-(piperidin-3-yl)benzamide] | 2100
19 | Cc1cc(C)c2c(N(C(=O)c3ccc(-c4nnc(C)o4)cc3F)[C@@H]3CCCNC3)nccc2c1 [Example 643, (R)—N-(6,8-dimethylisoquinolin-1-yl)-2-fluoro-4-(5-methyl-1,3,4-oxadiazol-2-yl)-N-(piperidin-3-yl)benzamide] | 64
20 | NC(=O)Cc1cccc(-c2cc3c(N(C(=O)c4ccc(-n5nnc6cccnc65)cc4F)[C@@H]4CCCNC4)nccc3s2)c1 [Example 447, N-[2-[3-(2-amino-2-oxo-ethyl)phenyl]thieno[3,2-c]pyridin-4-yl]-2-fluoro-N-[(3R)-3-piperidyl]-4-(triazolo[4,5-b]pyridin-3-yl)benzamide] | 110
21 | Cc1cc(C2CCN(C(=O)N(c3nccc4scc(C)c34)[C@@H]3CCCNC3)CC2)on1 [Example 796, (R)-4-(3-methylisoxazol-5-yl)-N-(3-methylthieno[3,2-c]pyridin-4-yl)-N-(piperidin-3-yl)piperidine-1-carboxamide] | 510
22 | [2H]C([2H])([2H])n1cc(-c2ccc(C(=O)N(c3nccc4cccc(C)c34)[C@@H]3CCCNC3)c(F)c2)nn1 [Example 890, 2-fluoro-N-(8-methyl-1-isoquinolyl)-N-[(3R)-3-piperidyl]-4-[1-(trideuteriomethyl)triazol-4-yl]benzamide] | 60
23 | O=C(c1ccc(Nc2ncccn2)cc1F)N(c1nccc2cc(-c3cccnc3)ccc12)[C@@H]1CCCNC1 [Example 397, (R)-2-fluoro-N-(piperidin-3-yl)-N-(6-(pyridin-3-yl)isoquinolin-1-yl)-4-(pyrimidin-2-ylamino)benzamide] | 460
24 | Cc1nnc(-c2ccc(C(=O)N(c3nccc4cc(F)ccc34)[C@@H]3CCCNC3)cc2)s1 [Example 804, (R)—N-(6-fluoroisoquinolin-1-yl)-4-(5-methyl-1,3,4-thiadiazol-2-yl)-N-(piperidin-3-yl)benzamide] | 980
25 | O=C(c1ccc(-c2cnn3c2CCCC3)cc1F)N(c1nccc2sc(C#CCCCO)cc12)[C@@H]1CCCNC1 [Example 839, 2-fluoro-N-[2-(5-hydroxypent-1-ynyl)thieno[3,2-c]pyridin-4-yl]-N-[(3R)-3-piperidyl]-4-(4,5,6,7-tetrahydropyrazolo[1,5-a]pyridin-3-yl)benzamide] | 1500
26 | O=C(c1ccc(-n2nnc3cccnc32)cc1F)N(c1nccc2sc(C#Cc3ccncc3)cc12)[C@@H]1CCCNC1 [Example 411, 2-fluoro-N-[(3R)-3-piperidyl]-N-[2-[2-(4-pyridyl)ethynyl]thieno[3,2-c]pyridin-4-yl]-4-(triazolo[4,5-b]pyridin-3-yl)benzamide] | 390
27 | Cn1cc(-c2ccc(C(=O)N(c3nccc4sc(-c5cccc(C(N)=O)c5)cc34)[C@@H]3CCCNC3)c(F)c2)nn1 [Example 480, N-[2-(3-carbamoylphenyl)thieno [3,2-c]pyridin-4-yl]-2-fluoro-4-(1-methyltriazol-4-yl)-N-[(3R)-3-piperidyl] benzamide] | 540
28 | O=C(c1ccc(-n2nnc3cccnc32)cc1F)N(c1nccc2sc(C#CCCCO)cc12)[C@@H]1CCCNC1 [Example 844, (R)-4-(3H-[1,2,3]triazolo[4,5-b]pyridin-3-yl)-2-fluoro-N-(2-(5-hydroxypent-1-yn-1-yl)thieno[3,2-c]pyridin-4-yl)-N-(piperidin-3-yl)benzamide] | 600
29 | CN(C)C(=O)/C=C/c1cc2c(N(C(=O)c3ccc(-n4nnc5cccnc54)cc3F)[C@@H]3CCCNC3)nccc2s1 [Example 526, N-[2-[(E)-3-(dimethylamino)-3-oxo-prop-1-enyl]thieno[3,2-c]pyridin-4-yl]-2-fluoro-N-[(3R)-3-piperidyl]-4-(triazolo[4,5-b]pyridin-3-yl)benzamide] | 870

Same assay, conditions: MV-4-11 cells, 72 h, Cell-Titer Glo; read-out: IC50

Row | Compound | IC50 [nM]
30 | CNC(=O)c1cccc(-c2cc3c(N(C(=O)c4ccc(-c5cn(C)nn5)cc4F)[C@@H]4CCCNC4)nccc3s2)c1 [Example 541, 2-fluoro-N-[2-[3-(methylcarbamoyl)phenyl]thieno[3,2-c]pyridin-4-yl]-4-(1-methyltriazol-4-yl)-N-[(3R)-3-piperidyl] benzamide] | 640
